The record followed here is US20060120972A1, “9-(N-methyl-piperidyliden-4)-thioxanthene for treatment of pulmonary hypertension” (priority 2004, published 2006).

“Also recorded” adds a separate entry of the source.

Assay [1] concerns plasma protein extravasation at the blood vessels within the Dura mater after mCPP application. Put plainly: mCPP model in guinea pigs: plasma protein extravasation (EvansBlue). The assay is classed as in vivo. Particulars: for Plasma protein extravasation as EvansBlue extinction at 600 nm: 2 min before 1 μg/kg mCPP, guinea pig dura mater. Here is the method:
In accordance to the protocol published by Markowitz et. al; (1987) and Olesen et. al; (2000), guinea pigs were used to determine the amount of plasma protein released at the blood vessels within the Dura mater after mCPP application.
2 minutes later 1 μg/kg body weight mCPP were injected and followed by the i.v. application of EvansBlue as marker for the protein plasma extravasation. 15 minutes later animals were transcranial perfused and decapitated. A defined area of the dura mater was isolated and transferred into an eppendorf tube containing 200 μl formamid. Because EvansBlue binds to plasma protein, the amount of bound marker dye is a measure of extravasation of plasma protein. Formamid dissolves EvansBlue from the protein which can be calorimetric detected and quantified at 600 nm.

Another assay addresses T1, human 5-HT2B receptor (Homo sapiens, UniProt P41595).
T1 construct: expressed in transfected cells; host or cells: HEK 293 (transient)
The experiment in a line: Cloned human 5-HT2B receptor binding assay. Particulars: 5-HT2B versus 5HT2C; listed as compound of the preferred embodiments.

The target in assay [2] is T2, human Histamine H1 receptor (Homo sapiens, UniProt P35367).
T2 construct: expressed in transfected cells
Put plainly: Cloned human H1 receptor binding assay. Here is the method:
(§1) CHO cells were stably transfected with an expression plasmid pCineohH1, pCineohH2, pCineohH3 and pCineohH4 encoding the human Histamine H1, H2, H3 or H4 receptor, respectively. Recombinant cell lines were harvested after confluent growth, homogenized in ice-cold 50 mM Na2/potassium phosphate buffer (pH 7.4) and used for radioligand binding studies. Cell homogenates (40-50 μg of protein) were incubated for 30 min at 25° C. in 50 mM Na2/potassium phosphate buffer (pH 7.4) in 400 μl with the various concentrations of either [^3H]-mepyramine, [^3H]-thiotidine, [^3H]-R-a-Methylhistamine, and [^3H]-pyramilamine for cells expressing recombinant human H1, H2, H3 and H4 receptors, respectively. The nonspecific binding was defined in the presence of 1 μM mianserin. […] The incubations were stopped by rapid dilution with 3 ml of ice-cold 50 mM Na2/potassium phosphate buffer (pH 7.4). […] Filters were washed twice in 3 ml of buffer and radioactivity retained on the filters was measured by liquid scintillation counting.
(§2) EC80 values were calculated from corresponding dose-response experiment using 5-HT, histamine, epinephrine (alpha 1A adrenergic receptor), dopamine (D2 dopaminergic receptor), and acetylcholine (M1 muscarinic receptor) as agonists.

In assay [3] the target is T3, human Histamine H2 receptor (Homo sapiens, UniProt P25021).
T3 construct: expressed in transfected cells
Put plainly: Cloned human H2 receptor binding assay. Here is the method: as §1, §2

Assay [4] concerns the target T4, human Histamine H3 receptor (Homo sapiens, UniProt Q9Y5N1).
T4 construct: expressed in transfected cells
The experiment in a line: Cloned human H3 receptor binding assay. Here is the method: as §1, §2

Assay [5] concerns the target T5, human Histamine H4 receptor (Homo sapiens, UniProt Q9H3N8).
T5 construct: expressed in transfected cells
The experiment in a line: Cloned human H4 receptor binding assay. Here is the method:
as §1, §2

T3 sequence (P25021 whole entry): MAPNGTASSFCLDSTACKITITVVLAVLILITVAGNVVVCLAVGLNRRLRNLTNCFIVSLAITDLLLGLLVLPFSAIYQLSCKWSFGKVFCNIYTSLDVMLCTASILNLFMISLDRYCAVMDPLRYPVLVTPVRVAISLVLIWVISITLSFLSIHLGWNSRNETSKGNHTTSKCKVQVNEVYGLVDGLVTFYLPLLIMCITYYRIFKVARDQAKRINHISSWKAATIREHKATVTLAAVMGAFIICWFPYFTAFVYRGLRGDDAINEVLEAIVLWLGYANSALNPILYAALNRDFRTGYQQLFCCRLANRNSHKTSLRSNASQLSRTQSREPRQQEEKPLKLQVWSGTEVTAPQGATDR
T4 sequence (Q9Y5N1 whole entry): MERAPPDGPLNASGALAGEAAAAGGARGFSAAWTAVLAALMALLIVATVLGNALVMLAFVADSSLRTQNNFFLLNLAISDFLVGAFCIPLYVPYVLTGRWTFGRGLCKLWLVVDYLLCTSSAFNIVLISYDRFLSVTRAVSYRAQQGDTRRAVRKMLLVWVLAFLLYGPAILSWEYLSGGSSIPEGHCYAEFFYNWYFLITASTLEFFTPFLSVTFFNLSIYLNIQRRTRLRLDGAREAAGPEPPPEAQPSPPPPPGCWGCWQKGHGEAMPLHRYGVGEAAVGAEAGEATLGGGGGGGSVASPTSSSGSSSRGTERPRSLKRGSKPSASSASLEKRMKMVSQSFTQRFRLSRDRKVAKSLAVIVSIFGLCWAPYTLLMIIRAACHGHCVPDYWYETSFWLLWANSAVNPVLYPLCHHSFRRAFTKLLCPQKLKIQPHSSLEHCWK
T5 sequence (Q9H3N8 whole entry): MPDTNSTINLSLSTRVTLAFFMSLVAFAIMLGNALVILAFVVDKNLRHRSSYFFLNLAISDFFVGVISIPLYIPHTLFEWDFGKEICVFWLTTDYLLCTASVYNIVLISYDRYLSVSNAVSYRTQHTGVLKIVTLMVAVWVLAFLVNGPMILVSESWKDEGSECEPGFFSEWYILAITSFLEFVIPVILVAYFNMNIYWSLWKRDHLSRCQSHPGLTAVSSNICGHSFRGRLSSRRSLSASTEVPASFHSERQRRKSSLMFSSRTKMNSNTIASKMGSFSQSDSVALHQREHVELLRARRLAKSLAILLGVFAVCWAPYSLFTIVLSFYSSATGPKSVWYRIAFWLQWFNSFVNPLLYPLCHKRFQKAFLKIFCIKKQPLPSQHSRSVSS
T1 sequence (P41595 whole entry): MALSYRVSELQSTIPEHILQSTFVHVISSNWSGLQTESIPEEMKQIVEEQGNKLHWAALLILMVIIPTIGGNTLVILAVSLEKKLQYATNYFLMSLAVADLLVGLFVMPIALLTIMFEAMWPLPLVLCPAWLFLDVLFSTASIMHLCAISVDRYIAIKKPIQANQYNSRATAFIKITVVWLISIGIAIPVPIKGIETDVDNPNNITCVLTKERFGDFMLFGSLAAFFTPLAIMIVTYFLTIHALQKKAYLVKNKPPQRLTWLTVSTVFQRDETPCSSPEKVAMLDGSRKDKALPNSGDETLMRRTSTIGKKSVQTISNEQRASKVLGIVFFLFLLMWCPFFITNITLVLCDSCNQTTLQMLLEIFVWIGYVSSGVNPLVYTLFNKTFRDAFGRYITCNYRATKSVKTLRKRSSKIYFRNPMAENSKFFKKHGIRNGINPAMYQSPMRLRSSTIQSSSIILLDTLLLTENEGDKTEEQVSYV
T2 sequence (P35367 whole entry): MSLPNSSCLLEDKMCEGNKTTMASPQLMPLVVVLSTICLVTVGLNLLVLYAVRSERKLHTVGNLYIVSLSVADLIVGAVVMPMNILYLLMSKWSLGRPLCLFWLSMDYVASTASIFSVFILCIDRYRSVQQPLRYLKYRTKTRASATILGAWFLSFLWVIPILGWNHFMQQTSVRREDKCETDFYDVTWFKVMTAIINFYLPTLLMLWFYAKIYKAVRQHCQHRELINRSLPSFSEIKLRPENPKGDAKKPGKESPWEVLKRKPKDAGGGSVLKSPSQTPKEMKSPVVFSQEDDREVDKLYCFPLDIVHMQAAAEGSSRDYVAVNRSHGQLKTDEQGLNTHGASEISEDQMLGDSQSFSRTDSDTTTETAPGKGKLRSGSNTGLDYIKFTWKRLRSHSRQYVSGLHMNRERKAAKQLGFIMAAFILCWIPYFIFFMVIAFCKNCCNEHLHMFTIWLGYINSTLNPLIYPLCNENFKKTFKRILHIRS

For `CC[C@@H](CO)NC(=O)[C@@H]1C=C2c3cccc4c3c(cn4C)C[C@H]2N(C)C1` [Methysergide], the “Plasma protein extravasation as EvansBlue extinction at 600 nm” value (“Plasma protein extravasation” for short) in assay [1] (dose 0.1 μg/kg i.v.) amounted to 0.265 ± 0.034; in assay [1] (dose 1 μg/kg i.v.), 0.250 ± 0.027; in assay [1] (dose 10 μg/kg i.v.) it was 0.228 ± 0.064; in assay [1] (dose 100 μg/kg i.v.), 0.189 ± 0.026.
For the molecule `CN1CCC(=C2c3ccccc3Sc3ccccc32)CC1` [Pimethixene, 9-(N-methyl-piperidyliden-4)-thioxanthene], the “Selectivity of affinity for 5-HT2B receptor versus 5HT2C receptor” value at human 5-HT2B receptor is recorded as “selective affinity; also recorded: much higher affinity”. Moreover, the “Affinity to the human H1 receptor (in words)” value in assay [2] was “high affinity”. Also, in assay [3], the “Affinity for the human H2 receptor (in words)” value is listed as “no affinity” and the “pKi values H2” value is given as “low activity”. In addition, in assay [4], the “Affinity for the human H3 receptor (in words)” value was “no affinity” and the “pKi values H3” value is recorded as “low activity”. In addition, in assay [5], the “Affinity for the human H4 receptor (in words)” value was “no affinity” and the “pKi values H4” value is listed as “low activity”. For the same molecule, the “Plasma protein extravasation” value in assay [1] (dose 0.001 μg/kg i.v.) worked out at 0.269 ± 0.022. Moreover, the “Plasma protein extravasation” value in assay [1] (dose 0.01 μg/kg i.v.) was 0.157 ± 0.040. Moreover, the “Plasma protein extravasation” value in assay [1] (dose 0.1 μg/kg i.v.) was 0.126 ± 0.028.
As to `CN1CCC(=C2c3ccccc3CCc3sccc32)CC1` [Pizotifen], the “Plasma protein extravasation” value in assay [1] (dose 1 μg/kg i.v.) was determined as 0.404 ± 0.025; in assay [1] (dose 10 μg/kg i.v.) it was 0.144 ± 0.035; in assay [1] (dose 100 μg/kg i.v.), 0.230 ± 0.018.
Regarding `Clc1cccc(N2CCNCC2)c1` [mCPP], the “EvansBlue extinction, positive control (mCPP agonist)” value in assay [1] (mCPP 1 μg/kg alone, no test compound, negative control 0,130±0,024) is recorded as 0,300±0,038.
